Measurements: ChEMBL document CHEMBL1938230, “6-Position optimization of tricyclic 4-quinolone-based inhibitors of glycogen synthase kinase-3β: discovery of nitrile derivatives with picomolar potency” (Bioorg Med Chem Lett, 2012)

Assays:
[1] = target: T1, Interleukin-1 receptor-associated kinase 3 (Homo sapiens) (UniProt Q9Y616); assay: Inhibition of human IRAK3 in HL-60 cells lysate assessed as reduction of labeling of acyl-phosphate ATP probe at 100 nM; format: cell-free
T1 sequence (whole entry): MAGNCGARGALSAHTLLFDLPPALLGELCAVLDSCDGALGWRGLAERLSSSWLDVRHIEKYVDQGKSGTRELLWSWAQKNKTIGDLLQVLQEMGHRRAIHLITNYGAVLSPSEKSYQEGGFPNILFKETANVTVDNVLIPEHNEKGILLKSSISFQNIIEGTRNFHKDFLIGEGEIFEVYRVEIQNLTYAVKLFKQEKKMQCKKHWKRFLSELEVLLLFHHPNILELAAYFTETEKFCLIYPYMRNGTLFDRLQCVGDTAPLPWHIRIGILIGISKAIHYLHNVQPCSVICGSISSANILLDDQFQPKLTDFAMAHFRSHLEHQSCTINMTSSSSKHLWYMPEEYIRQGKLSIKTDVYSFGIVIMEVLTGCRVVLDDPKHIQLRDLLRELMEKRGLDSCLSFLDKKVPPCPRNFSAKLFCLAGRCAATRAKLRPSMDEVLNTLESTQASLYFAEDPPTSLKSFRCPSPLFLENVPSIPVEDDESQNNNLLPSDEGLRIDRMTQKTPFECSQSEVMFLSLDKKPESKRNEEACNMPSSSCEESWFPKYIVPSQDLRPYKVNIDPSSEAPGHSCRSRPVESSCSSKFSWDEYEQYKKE

[2] = target: Mitogen-activated protein kinase 14 (Homo sapiens) (UniProt Q16539); assay: Inhibition of human P38alpha in HL-60 cells lysate assessed as reduction of labeling of acyl-phosphate ATP probe at 100 nM; format: cell-free
[3] = target: T2, Mixed lineage kinase domain-like protein (Homo sapiens) (UniProt Q8NB16); assay: Inhibition of human MLKL in HL-60 cells lysate assessed as reduction of labeling of acyl-phosphate ATP probe at 100 nM; format: cell-free
T2 sequence (whole entry): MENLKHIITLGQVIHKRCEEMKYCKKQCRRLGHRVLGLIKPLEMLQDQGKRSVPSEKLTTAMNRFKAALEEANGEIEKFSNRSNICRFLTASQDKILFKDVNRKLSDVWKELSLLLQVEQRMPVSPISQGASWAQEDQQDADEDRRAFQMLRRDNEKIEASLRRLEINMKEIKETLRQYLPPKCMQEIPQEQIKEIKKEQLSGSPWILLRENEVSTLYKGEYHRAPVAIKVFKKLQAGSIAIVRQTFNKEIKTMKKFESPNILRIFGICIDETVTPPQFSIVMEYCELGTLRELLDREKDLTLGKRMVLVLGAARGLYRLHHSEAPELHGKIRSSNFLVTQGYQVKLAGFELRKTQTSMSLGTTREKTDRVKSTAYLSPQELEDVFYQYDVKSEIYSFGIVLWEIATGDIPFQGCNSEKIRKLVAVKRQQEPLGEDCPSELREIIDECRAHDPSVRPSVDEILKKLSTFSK

[4] = target: T3, Dual specificity mitogen-activated protein kinase kinase 7 (Homo sapiens) (UniProt O14733); assay: Inhibition of human MAP2K7 in HL-60 cells lysate assessed as reduction of labeling of acyl-phosphate ATP probe at 100 nM; format: cell-free
T3 sequence (whole entry): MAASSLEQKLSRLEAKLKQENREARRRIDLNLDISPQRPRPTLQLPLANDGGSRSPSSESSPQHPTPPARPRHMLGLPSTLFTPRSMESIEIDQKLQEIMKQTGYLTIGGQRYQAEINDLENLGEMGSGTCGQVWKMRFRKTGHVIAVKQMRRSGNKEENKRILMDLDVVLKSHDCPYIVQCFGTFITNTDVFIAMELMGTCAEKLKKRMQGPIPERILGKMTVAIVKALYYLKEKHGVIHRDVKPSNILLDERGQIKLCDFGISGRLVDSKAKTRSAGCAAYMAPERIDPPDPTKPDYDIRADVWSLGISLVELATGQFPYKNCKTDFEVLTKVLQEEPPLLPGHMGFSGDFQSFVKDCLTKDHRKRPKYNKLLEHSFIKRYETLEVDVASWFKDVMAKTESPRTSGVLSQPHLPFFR

[5] = target: Mitogen-activated protein kinase kinase kinase kinase 1 (Homo sapiens) (UniProt Q92918); assay: Inhibition of human HPK1 in HL-60 cells lysate assessed as reduction of labeling of acyl-phosphate ATP probe at 100 nM; format: cell-free
[6] = target: T4, Serine/threonine-protein kinase 3 (Homo sapiens) (UniProt Q13188); assay: Inhibition of human MST2 in HL-60 cells lysate assessed as reduction of labeling of acyl-phosphate ATP probe at 100 nM; format: cell-free
T4 sequence (whole entry): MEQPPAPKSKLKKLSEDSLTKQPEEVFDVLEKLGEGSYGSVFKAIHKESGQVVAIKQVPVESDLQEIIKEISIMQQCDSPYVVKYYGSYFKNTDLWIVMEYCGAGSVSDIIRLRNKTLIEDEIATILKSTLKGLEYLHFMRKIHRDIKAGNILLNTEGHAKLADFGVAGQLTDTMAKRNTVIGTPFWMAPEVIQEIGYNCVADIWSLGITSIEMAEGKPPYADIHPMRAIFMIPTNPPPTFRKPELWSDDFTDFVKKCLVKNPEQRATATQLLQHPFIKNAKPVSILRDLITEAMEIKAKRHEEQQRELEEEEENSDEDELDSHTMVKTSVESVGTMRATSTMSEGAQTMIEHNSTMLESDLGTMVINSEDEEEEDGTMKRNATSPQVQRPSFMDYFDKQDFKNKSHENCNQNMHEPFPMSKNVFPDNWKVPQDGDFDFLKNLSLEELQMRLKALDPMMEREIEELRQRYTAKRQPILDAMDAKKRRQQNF

[7] = test system: HL-60; assay: Inhibition of human CLK1/CLK4 in HL-60 cells lysate assessed as reduction of labeling of acyl-phosphate ATP probe at 100 nM
[8] = target: IKK epsilon/TBK1 (Homo sapiens) (UniProt Q14164+Q9UHD2); assay: Inhibition of human IKKepsilon/TBK1 in HL-60 cells lysate assessed as reduction of labeling of acyl-phosphate ATP probe at 100 nM; format: cell-free

Mitogen-activated protein kinase kinase kinase kinase 1 (Homo sapiens), sequence (Q92918 whole entry, looked up): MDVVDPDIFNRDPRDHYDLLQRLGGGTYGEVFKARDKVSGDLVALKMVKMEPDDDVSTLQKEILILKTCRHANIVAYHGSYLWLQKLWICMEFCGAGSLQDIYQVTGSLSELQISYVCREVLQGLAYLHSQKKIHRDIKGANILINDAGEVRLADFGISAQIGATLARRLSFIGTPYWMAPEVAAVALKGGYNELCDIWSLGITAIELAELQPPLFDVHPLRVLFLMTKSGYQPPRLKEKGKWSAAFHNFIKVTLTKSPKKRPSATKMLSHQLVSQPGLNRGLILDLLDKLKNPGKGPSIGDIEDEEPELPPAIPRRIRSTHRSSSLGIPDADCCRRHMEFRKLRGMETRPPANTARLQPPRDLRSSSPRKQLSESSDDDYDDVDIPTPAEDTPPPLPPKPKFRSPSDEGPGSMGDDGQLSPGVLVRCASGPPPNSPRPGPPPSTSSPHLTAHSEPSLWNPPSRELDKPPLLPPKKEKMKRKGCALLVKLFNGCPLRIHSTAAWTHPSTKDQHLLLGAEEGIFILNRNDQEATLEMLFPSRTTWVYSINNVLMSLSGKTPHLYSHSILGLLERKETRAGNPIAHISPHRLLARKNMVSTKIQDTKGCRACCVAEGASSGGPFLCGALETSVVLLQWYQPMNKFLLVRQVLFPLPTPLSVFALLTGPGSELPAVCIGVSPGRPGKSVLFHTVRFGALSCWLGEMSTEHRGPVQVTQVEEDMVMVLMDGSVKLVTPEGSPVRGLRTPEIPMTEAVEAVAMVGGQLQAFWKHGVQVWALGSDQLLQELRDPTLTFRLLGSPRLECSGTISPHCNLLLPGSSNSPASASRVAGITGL
Mitogen-activated protein kinase 14 (Homo sapiens), sequence (Q16539 whole entry, the tested form may be a part): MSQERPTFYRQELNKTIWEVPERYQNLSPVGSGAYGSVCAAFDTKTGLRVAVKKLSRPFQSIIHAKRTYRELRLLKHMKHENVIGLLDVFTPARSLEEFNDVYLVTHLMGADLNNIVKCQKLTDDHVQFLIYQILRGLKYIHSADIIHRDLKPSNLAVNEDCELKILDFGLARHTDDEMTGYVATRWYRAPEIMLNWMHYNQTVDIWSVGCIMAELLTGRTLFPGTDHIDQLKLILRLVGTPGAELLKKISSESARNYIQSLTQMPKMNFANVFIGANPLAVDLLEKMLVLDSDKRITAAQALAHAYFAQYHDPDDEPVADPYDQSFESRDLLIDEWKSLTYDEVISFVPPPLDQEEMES

inhibition [1] [%] | inhibition [2] [%] | inhibition [3] [%] | inhibition [4] [%] | inhibition [5] [%] | inhibition [6] [%] | inhibition [8] [%] | SMILES | inhibition at 0.1 µM [7] [%]
< 35 | < 35 | < 35 | < 35 | < 35 | < 35 | < 35 | C[C@H]1COc2c(NCCCc3ccccn3)c(F)c(N)c3c(=O)c(C#N)cn1c23 | < 35
< 35 | < 35 | < 35 | < 35 | < 35 | < 35 | < 35 | C[C@H]1COc2c(NCCCn3cccn3)c(F)c(N)c3c(=O)c(C(=O)O)cn1c23 | < 35
< 35 | < 35 | < 35 | < 35 | < 35 | < 35 | < 35 | C[C@H]1COc2c(NCCCn3cccn3)c(F)c(N)c3c(=O)c(C#N)cn1c23 | < 35
< 35 | < 35 | < 35 | < 35 | < 35 | < 35 | < 35 | C[C@H]1COc2c(NCCCc3ccccn3)c(F)c(N)c3c(=O)c(C(=O)O)cn1c23 | < 35
